According to patent US5873359A, “Methods and devices for treating pulmonary vasoconstriction and asthma” (The General Hospital Corporation, priority 1994, dated 1999):

Key:
[1] = test system: pulmonary hypertension in ARDS; test: Inhaled NO versus i.v. prostacyclin in adult with ARDS (first subject); type: in vivo, human
Method: First subject. The patient had suffered for three weeks from adult respiratory distress syndrome (ARDS) due to aspiration pneumonia. There was diffuse pulmonary edema and a large QVA /QT (30%). After 21 days of venovenous extracorporeal membrane oxygenator support (3 liters/min blood flow), the mean PAP was 55 mm Hg.
The short term effects of inhaled nitric oxide were compared with those of i.v. prostacyclin (PGI2; 5ng/kg/min). Mean pulmonary arterial pressure (PAP), right ventricular ejection fraction (RVEF) and gas exchange variables were evaluated. RVEF was assessed by thermodilution, and gas exchange alterations were analyzed using the multiple inert gas elimination technique (MIGET). MIGET and RVEF date were obtained on two different occasions. Ventilator settings were tidal volume 6 ml/kg, respiratory rate 14/min, Fi O2 0.4-0.48 and 5 cm H2 O of PEEP (positive end expiratory pressure).

airway resistance = test: Methacholine infusion alone (stability of bronchoconstrictor model); type: in vivo, Hartley strain guinea pigs; conditions: methacholine infusion (FIG. 13)
Method: (§1) Male Hartley strain guinea pigs (300-440g body wt) were anesthetized with α-chloralose (50 mg/kg) and urethane (500 mg/kg) (Drazen et al., J. Appl. Physiol. 48:613-618, 1980). A tracheostomy was performed, and the animals were intubated with a tubing adaptor (ID 1.65 mm) and ventilated with a small animal ventilator (Harvard Apparatus, a division of Ealing Scientific, Natick, Mass.) at 8 ml/kg and 60 breaths/min. A jugular vein was cannulated for intravenous administration of drugs. The chest was opened by bilateral excision of a portion of the ribs anteriorly so that the lungs were exposed to atmospheric pressure (Shore and Drazen, J. Appl. Physiol. 67:2504-2511, 1989). A positive end expiratory pressure of 3-4 cmH2 O was provided.
(§2) Guinea pigs were then placed inside a plethysmograph (Amdur and Mead, Am. J. Physiol. 192:363-368, 1958), that was connected to a large reservoir containing copper mesh to maintain the plethysmograph isothermal. Plethysmograph pressure was measured with a differential pressure transducer (Celesco, Canoga Park, Calif.); the opposite side of this transducer was connected to a similar reservoir. Pressure at the airway opening was measured from a side tap in the tracheal canula. Transpulmonary pressure was measured with a differential pressure transducer (Celesco) as the difference between airway opening pressure and the pressure inside the plethysmograph. […]

[2] = test system: persistent pulmonary hypertension of the newborn (PPHN); type: in vivo, human; conditions: standard dosage, infused, during nitric oxide
Method: First subject. Through compassionate use, nitric oxide was administered to an infant suffering from persistent pulmonary hypertension and congenital heart disease. As a result of prolonged ventilation, absence of a preductal arterial blood sampling site, and the existence of the atrial-ventricular (AV) canal, the patient was not included in the PPHN study mentioned above.
The patient was a 3225 gm, full term person who had been treated with extracorporeal membrane oxygenation (ECMO) because of the severity of their congenital heart disease and profound hypoxemia. They had been taken off ECMO and was being maintained intubated and ventilated in the newborn intensive care unit. They subsequently became progressively hypoxemic, as reflected in their post-ductal pulse oximetry (POX) values. By the time they were taken to the catheterization laboratory to confirm the existence of the A-V canal and to determine if some emergent cardiac surgery was needed, they were receiving maximal medical and ventilatory life support and remained dangerously hypoxemic. Under these circumstances, we were granted consent to treat the patient with nitric oxide.
Upon arrival to the catheterization laboratory, the patient was extremely cyanotic. They were treated with fentanyl, oxygen, hyperventilation and intravenous fluid boluses to stabilize them prior to administering NO.
We utilized a regulator to step-down the pressure of the NO into a blender, which allowed us to adjust the relative amounts of the 800 ppm NO/N2 and 100% N2 supplies. Treating the patient with pure oxygen, we increased the flow of N2 through a flow regulator into the inspiratory circuit of the breathing cicuit until the FI O2 was 0.9. This provided a 1:10 dilution of the nitrogen gas. We then used the blender to adjust the relative amounts of N2 and […] to provide 0 to 80 ppm of NO.

[3] = test system: methacholine bronchoconstriction; test: NO and terbutaline aerosol during methacholine infusion; type: in vivo, Hartley strain guinea pigs; conditions: NO gas before or after inhaled terbutaline
Method: as §1, §2

[4] = occasion #1, PGI2 5ng/kg/min i.v.
[5] = occasion #2, PGI2 5ng/kg/min i.v.

Q: How did the “QVA /QT” value ([1]; PGI2, i.v.) turn out when `CCCCC[C@H](O)/C=C/[C@@H]1[C@H]2C/C(=C/CCCC(=O)O)O[C@H]2C[C@H]1O` [PGI2, prostacyclin, reference compound] was run?
A: 57%

Q: What about the “PAP and RVEF” value ([1]; inhaled NO and i.v. PGI2, text) of the same compound?
A: lowered PAP and improved RVEF

Q: And the MAP [1, 4]?
A: 81 mm Hg

Q: And the PAP [1, 4]?
A: 46 mm Hg

Q: What about the PCWP [1, 4] of the same compound?
A: 12 mm Hg

Q: What about the PaO2 [1, 4] of the same compound?
A: 74 torr

Q: And the “QA /QT” value [1, 4]?
A: 57%

Q: And the “VD /VT” value [1, 4]?
A: 51%

Q: What about the “low VD /Q” value [1, 4] of the same compound?
A: 0%

Q: And the MAP [1, 5]?
A: 86 mm Hg

Q: And the PAP [1, 5]?
A: 42 mm Hg

Q: And the PCWP [1, 5]?
A: 14 mm Hg

Q: And the PaO2 [1, 5]?
A: 81 torr

Q: What about the RVEF [1, 5] of the same compound?
A: 42%

Q: `CC(=O)OC(C)C[N+](C)(C)C` (centres unmarked) [methacholine] was tested. Which airway resistance (airway resistance) did it give?
A: stably increasing levels of airway resistance for up to one hour

Q: With `CCCCC[C@H](O)/C=C/[C@H]1[C@H](O)CC(=O)[C@@H]1CCCCCCC(=O)O` [prostaglandin E1, reference compound] as the compound, how does the “effect of prostaglandin infusion on need for nitric oxide” value [2] read?
A: nitric oxide could not be discontinued without the return of dangerously low oxygen saturations

Q: For `CC(C)(C)NCC(O)c1cc(O)cc(O)c1` (centres unmarked) [terbutaline, reference compound], which “bronchodilating effects of NO plus terbutaline” value [3] is on record?
A: additive
